From PubChem BioAssay AID1963828 (Molecular Pharmacology Branch, DTP, NCI, 2024)

Tested on: 991263-137-R1-J2-PDC complex spheroid viability
Assay: Anticancer human tumor 991263-137-R1-J2-PDC patient-derived colon adenocarcinoma cell line growth inhibition [POLQ]
Settings: for IC50: curve of first compound; for viability, T/C: stronger effect = lower value
Procedure, shortened: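 Complex spheroid viability model combining PDC tumour cells with endothelial (HUVEC) and MSC stromal cells. Novobiocin, ART-558 or RP6685 were tested singly and in combination with standard and investigational anticancer drugs. Each was titrated in half-log steps from near clinical Cmax, or from 10 microM where Cmax was unknown.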

[1] = second compound 0.0316 µM, first compound 0.0316 µM
[2] = second compound 0.0316 µM, first compound 0.1 µM
[3] = second compound 0.1 µM, first compound 0.0316 µM
[4] = second compound 0.1 µM, first compound 0.1 µM
[5] = second compound 0.316 µM, first compound 0.0316 µM
[6] = second compound 0.316 µM, first compound 0.1 µM
[7] = second compound 1 µM, first compound 0.0316 µM
[8] = second compound 1 µM, first compound 0.1 µM
[9] = second compound 3.16 µM, first compound 0.0316 µM
[10] = second compound 3.16 µM, first compound 0.1 µM
[11] = second compound 10 µM, first compound 0.0316 µM
[12] = second compound 10 µM, first compound 0.1 µM
[13] = second compound 0.0316 µM, first compound 0.316 µM
[14] = second compound 0.0316 µM, first compound 1 µM
[15] = second compound 0.0316 µM, first compound 3.16 µM
[16] = second compound 0.0316 µM, first compound 10 µM
[17] = second compound 0.1 µM, first compound 0.316 µM
[18] = second compound 0.1 µM, first compound 1 µM
[19] = second compound 0.1 µM, first compound 3.16 µM
[20] = second compound 0.1 µM, first compound 10 µM
[21] = second compound 0.316 µM, first compound 0.316 µM
[22] = second compound 0.316 µM, first compound 1 µM
[23] = second compound 0.316 µM, first compound 3.16 µM
[24] = second compound 0.316 µM, first compound 10 µM
[25] = second compound 1 µM, first compound 0.316 µM
[26] = second compound 1 µM, first compound 1 µM
[27] = second compound 1 µM, first compound 3.16 µM
[28] = second compound 1 µM, first compound 10 µM
[29] = second compound 3.16 µM, first compound 0.316 µM
[30] = second compound 3.16 µM, first compound 1 µM
[31] = second compound 3.16 µM, first compound 3.16 µM
[32] = second compound 3.16 µM, first compound 10 µM
[33] = second compound 10 µM, first compound 0.316 µM
[34] = second compound 10 µM, first compound 1 µM
[35] = second compound 10 µM, first compound 3.16 µM
[36] = second compound 10 µM, first compound 10 µM
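Note: spheroids exposed to compounds for 7 days before readout.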
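Throughout, for viability, T/C: 100% = DMSO vehicle control viability.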

With CC[C@@]1(O)C(=O)OCc2c1cc1n(c2=O)Cc2cc3c(CN(C)C)c(O)ccc3nc2-1 + Cc1cccc(N(C)C(=O)C2C(O)CCN2c2nc(C)cc(C(F)(F)F)c2C#N)c1 as the compound, how does the IC50 (second compound 0.0316 µM) read?
The IC50 was over 0.1 µM.

What about the IC50 (second compound 0.1 µM) of the same compound?
Its IC50 is over 0.1 µM.

And the IC50 (second compound 0.316 µM)?
The IC50 was over 0.1 µM.

What about the IC50 (second compound 1 µM) of the same compound?
The IC50 was over 0.1 µM.

What about the IC50 (second compound 3.16 µM) of the same compound?
The IC50 was over 0.1 µM.

And the IC50 (second compound 10 µM)?
The IC50 was over 0.1 µM.

What about the viability, T/C (second compound 0.0316 µM, first compound 0.000316 µM) of the same compound?
The viability, T/C was 111%.

What about the viability, T/C (second compound 0.0316 µM, first compound 0.001 µM) of the same compound?
Its viability, T/C is 115%.

And the viability, T/C (second compound 0.0316 µM, first compound 0.00316 µM)?
The viability, T/C was 111%.

What about the viability, T/C (second compound 0.0316 µM, first compound 0.01 µM) of the same compound?
The viability, T/C was 106%.

What about the viability, T/C [1] of the same compound?
The viability, T/C was 114%.

And the viability, T/C [2]?
The viability, T/C was 97.3%.

And the viability, T/C (second compound 0.1 µM, first compound 0.000316 µM)?
The viability, T/C was 112%.

What about the viability, T/C (second compound 0.1 µM, first compound 0.001 µM) of the same compound?
Its viability, T/C is 111%.

And the viability, T/C (second compound 0.1 µM, first compound 0.00316 µM)?
The viability, T/C was 94%.

What about the viability, T/C (second compound 0.1 µM, first compound 0.01 µM) of the same compound?
Its viability, T/C is 118%.

What about the viability, T/C [3] of the same compound?
Its viability, T/C is 105%.

And the viability, T/C [4]?
The viability, T/C was 92.8%.

What about the viability, T/C (second compound 0.316 µM, first compound 0.000316 µM) of the same compound?
The viability, T/C was 117%.

And the viability, T/C (second compound 0.316 µM, first compound 0.001 µM)?
Its viability, T/C is 130%.

And the viability, T/C (second compound 0.316 µM, first compound 0.00316 µM)?
The viability, T/C was 101%.

And the viability, T/C (second compound 0.316 µM, first compound 0.01 µM)?
The viability, T/C was 95.9%.

What about the viability, T/C [5] of the same compound?
The viability, T/C was 101%.

What about the viability, T/C [6] of the same compound?
Its viability, T/C is 91.4%.

And the viability, T/C (second compound 1 µM, first compound 0.000316 µM)?
Its viability, T/C is 111%.

And the viability, T/C (second compound 1 µM, first compound 0.001 µM)?
The viability, T/C was 114%.

What about the viability, T/C (second compound 1 µM, first compound 0.00316 µM) of the same compound?
The viability, T/C was 109%.

What about the viability, T/C (second compound 1 µM, first compound 0.01 µM) of the same compound?
Its viability, T/C is 118%.

And the viability, T/C [7]?
The viability, T/C was 110%.

And the viability, T/C [8]?
The viability, T/C was 81.5%.

And the viability, T/C (second compound 3.16 µM, first compound 0.000316 µM)?
Its viability, T/C is 101%.

And the viability, T/C (second compound 3.16 µM, first compound 0.001 µM)?
The viability, T/C was 98.3%.

And the viability, T/C (second compound 3.16 µM, first compound 0.00316 µM)?
The viability, T/C was 98.2%.

What about the viability, T/C (second compound 3.16 µM, first compound 0.01 µM) of the same compound?
The viability, T/C was 86.6%.

And the viability, T/C [9]?
Its viability, T/C is 96.2%.

And the viability, T/C [10]?
The viability, T/C was 91.3%.

What about the viability, T/C (second compound 10 µM, first compound 0.000316 µM) of the same compound?
Its viability, T/C is 117%.

And the viability, T/C (second compound 10 µM, first compound 0.001 µM)?
The viability, T/C was 120%.

What about the viability, T/C (second compound 10 µM, first compound 0.00316 µM) of the same compound?
Its viability, T/C is 108%.

What about the viability, T/C (second compound 10 µM, first compound 0.01 µM) of the same compound?
The viability, T/C was 97.5%.

What about the viability, T/C [11] of the same compound?
Its viability, T/C is 90.8%.

And the viability, T/C [12]?
Its viability, T/C is 77%.

Which results are given for COc1cc2cc(C(=O)CCC(=O)O)sc2cc1OC + Nc1ccc(C#CCN(C(=O)Cc2ncc(C(F)(F)F)cc2C(F)(F)F)c2ccc(F)cc2)nn1?
IC50 (second compound 0.0316 µM): > 10 µM; IC50 (second compound 0.1 µM): > 10 µM; IC50 (second compound 0.316 µM): > 10 µM; IC50 (second compound 1 µM): > 10 µM; IC50 (second compound 3.16 µM): > 10 µM; IC50 (second compound 10 µM): > 10 µM; viability, T/C [1]: 115%; viability, T/C [2]: 108%; viability, T/C [13]: 111%; viability, T/C [14]: 116%; viability, T/C [15]: 87.9%; viability, T/C [16]: 84.8%; viability, T/C [3]: 116%; viability, T/C [4]: 115%; viability, T/C [17]: 95.8%; viability, T/C [18]: 98.7%; viability, T/C [19]: 113%; viability, T/C [20]: 93.8%; viability, T/C [5]: 97.1%; viability, T/C [6]: 105%; viability, T/C [21]: 102%; viability, T/C [22]: 104%; viability, T/C [23]: 95%; viability, T/C [24]: 77.5%; viability, T/C [7]: 107%; viability, T/C [8]: 103%; viability, T/C [25]: 108%; viability, T/C [26]: 96.8%; viability, T/C [27]: 104%; viability, T/C [28]: 86.6%; viability, T/C [9]: 106%; viability, T/C [10]: 99.6%; viability, T/C [29]: 105%; viability, T/C [30]: 103%; viability, T/C [31]: 105%; viability, T/C [32]: 88.2%; viability, T/C [11]: 101%; viability, T/C [12]: 96.6%; viability, T/C [33]: 112%; viability, T/C [34]: 94.7%; viability, T/C [35]: 107%; viability, T/C [36]: 82.1%

CCc1cc2c(N3CCc4c(cc(Cn5ccnc5)cc4-c4cn(C)nc4C(F)(F)F)C3=O)ccnc2c(OC)n1 + Nc1ccc(C#CCN(C(=O)Cc2ncc(C(F)(F)F)cc2C(F)(F)F)c2ccc(F)cc2)nn1 was tested. Which IC50 (second compound 0.0316 µM) did it give?
Its IC50 is over 10 µM.

And the IC50 (second compound 0.1 µM)?
Its IC50 is over 10 µM.

And the IC50 (second compound 0.316 µM)?
Its IC50 is over 10 µM.

And the IC50 (second compound 1 µM)?
Its IC50 is over 10 µM.

And the IC50 (second compound 3.16 µM)?
Its IC50 is over 10 µM.

What about the IC50 (second compound 10 µM) of the same compound?
Its IC50 is over 10 µM.

And the viability, T/C [1]?
Its viability, T/C is 118%.

What about the viability, T/C [2] of the same compound?
The viability, T/C was 109%.

What about the viability, T/C [13] of the same compound?
Its viability, T/C is 101%.

And the viability, T/C [14]?
Its viability, T/C is 92.2%.

And the viability, T/C [15]?
The viability, T/C was 91.5%.

And the viability, T/C [16]?
Its viability, T/C is 88.7%.

What about the viability, T/C [3] of the same compound?
Its viability, T/C is 97.1%.

What about the viability, T/C [4] of the same compound?
The viability, T/C was 103%.

What about the viability, T/C [17] of the same compound?
The viability, T/C was 108%.

What about the viability, T/C [18] of the same compound?
The viability, T/C was 101%.

And the viability, T/C [19]?
Its viability, T/C is 96%.

And the viability, T/C [20]?
The viability, T/C was 90.2%.

And the viability, T/C [5]?
The viability, T/C was 107%.

And the viability, T/C [6]?
Its viability, T/C is 99.8%.

What about the viability, T/C [21] of the same compound?
The viability, T/C was 106%.

And the viability, T/C [22]?
Its viability, T/C is 111%.

What about the viability, T/C [23] of the same compound?
Its viability, T/C is 103%.

And the viability, T/C [24]?
The viability, T/C was 79.3%.

What about the viability, T/C [7] of the same compound?
Its viability, T/C is 95.1%.

What about the viability, T/C [8] of the same compound?
Its viability, T/C is 107%.

And the viability, T/C [25]?
Its viability, T/C is 108%.

And the viability, T/C [26]?
The viability, T/C was 91.9%.

What about the viability, T/C [27] of the same compound?
The viability, T/C was 97.4%.

And the viability, T/C [28]?
Its viability, T/C is 95.7%.

What about the viability, T/C [9] of the same compound?
Its viability, T/C is 116%.

And the viability, T/C [10]?
The viability, T/C was 112%.

What about the viability, T/C [29] of the same compound?
The viability, T/C was 87%.

And the viability, T/C [30]?
The viability, T/C was 101%.

What about the viability, T/C [31] of the same compound?
The viability, T/C was 95.3%.

What about the viability, T/C [32] of the same compound?
Its viability, T/C is 89.6%.

What about the viability, T/C [11] of the same compound?
The viability, T/C was 95.1%.

And the viability, T/C [12]?
Its viability, T/C is 102%.

And the viability, T/C [33]?
Its viability, T/C is 107%.

What about the viability, T/C [34] of the same compound?
Its viability, T/C is 89.8%.

And the viability, T/C [35]?
Its viability, T/C is 86.4%.

And the viability, T/C [36]?
The viability, T/C was 82.9%.
